# From the supplement of paper PMC10307832
# How the values were obtained:
# Experiment in all cases: relative viability (nuclei count vs DMSO), 5 days (fraction); higher = more cells survive
# SK-LU-1 = tested on: SK-LU-1
# Outline: (§1)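 Relative viability divides the nuclei count in treated wells by that in vehicle wells. Lung cancer cell lines were seeded in 1536-well plates, dosed by pin tool the next day, and fixed and stained after 5 days in one step with final 0.05% Triton X-100, 1% formaldehyde and 1 ug/ml Hoechst. Dosing was a single drug or a fixed anchor-drug dose plus five library-drug doses (not always all listed) in √10 steps, and values are medians of duplicate plates imaged at 4×.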
# NCI-H1651 = tested on: NCI-H1651
# Outline: as §1
# LXF-289 = tested on: LXF-289
# Outline: as §1
# COR-L 105 = tested on: COR-L 105
# Outline: as §1
# NCI-H2347 = tested on: NCI-H2347
# Outline: as §1
# SK-MES-1 = tested on: SK-MES-1
# Outline: as §1
# NCI-H1793 = tested on: NCI-H1793
# Outline: as §1
# LC-2-ad = tested on: LC-2-ad
# Outline: as §1
# EMC-BAC-2 = tested on: EMC-BAC-2
# Outline: as §1
# LK-2 = tested on: LK-2
# Outline: as §1
# EKVX = tested on: EKVX
# Outline: as §1
# H3255 = tested on: H3255
# Outline: as §1
# PC-3 [JPC-3] = tested on: PC-3 [JPC-3]
# Outline: as §1
# NCI-H2085 = tested on: NCI-H2085
# Outline: as §1
# NCI-H1915 = tested on: NCI-H1915
# Outline: as §1
# NCI-H1395 = tested on: NCI-H1395
# Outline: as §1
# NCI-H1437 = tested on: NCI-H1437
# Outline: as §1
# NCI-H2087 = tested on: NCI-H2087
# Outline: as §1
# NCI-H2228 = tested on: NCI-H2228
# Outline: as §1
# CAL-12T = tested on: CAL-12T
# Outline: as §1
# NCI-H1755 = tested on: NCI-H1755
# Outline: as §1
# NCI-H1944 = tested on: NCI-H1944
# Outline: as §1
# NCI-H661 = tested on: NCI-H661
# Outline: as §1
smiles,measurement,setting,value
CCCCCCCCCCCC1=C(O)C(=O)C=C(O)C1=O [Embelin] + CC1(C)CCC(c2ccc(Cl)cc2)=C(CN2CCN(c3ccc(C(=O)NS(=O)(=O)c4ccc(N[C@H](CCN5CCOCC5)CSc5ccccc5)c(S(=O)(=O)C(F)(F)F)c4)cc3)CC2)C1 [Navitoclax] (partner 0.5 µM),relative viability,SK-LU-1; first compound 0.08 µM,0.808
same,relative viability,SK-LU-1; first compound 0.8 µM,1.16
same,relative viability,SK-LU-1; first compound 2.53 µM,0.786
same,relative viability,SK-LU-1; first compound 8 µM,0.832
same,relative viability,NCI-H1651; first compound 0.08 µM,0.926
same,relative viability,NCI-H1651; first compound 0.8 µM,1.19
same,relative viability,NCI-H1651; first compound 2.53 µM,1.02
same,relative viability,NCI-H1651; first compound 8 µM,1.09
same,relative viability,LXF-289; first compound 0.08 µM,1.01
same,relative viability,LXF-289; first compound 0.8 µM,0.959
same,relative viability,LXF-289; first compound 2.53 µM,1.03
same,relative viability,LXF-289; first compound 8 µM,0.953
same,relative viability,COR-L 105; first compound 0.08 µM,0.758
same,relative viability,COR-L 105; first compound 0.8 µM,1.04
same,relative viability,COR-L 105; first compound 2.53 µM,0.748
same,relative viability,COR-L 105; first compound 8 µM,0.795
same,relative viability,NCI-H2347; first compound 0.08 µM,0.746
same,relative viability,NCI-H2347; first compound 0.8 µM,0.95
same,relative viability,NCI-H2347; first compound 2.53 µM,1.01
same,relative viability,NCI-H2347; first compound 8 µM,0.811
same,relative viability,SK-MES-1; first compound 0.08 µM,1.23
same,relative viability,SK-MES-1; first compound 0.8 µM,1.32
same,relative viability,SK-MES-1; first compound 2.53 µM,1.25
same,relative viability,SK-MES-1; first compound 8 µM,1.43
same,relative viability,NCI-H1793; first compound 0.08 µM,0.461
same,relative viability,NCI-H1793; first compound 0.8 µM,0.46
same,relative viability,NCI-H1793; first compound 2.53 µM,0.498
same,relative viability,NCI-H1793; first compound 8 µM,0.369
same,relative viability,LC-2-ad; first compound 0.08 µM,0.406
same,relative viability,LC-2-ad; first compound 0.8 µM,0.625
same,relative viability,LC-2-ad; first compound 2.53 µM,0.451
same,relative viability,LC-2-ad; first compound 8 µM,0.51
same,relative viability,EMC-BAC-2; first compound 0.08 µM,1.17
same,relative viability,EMC-BAC-2; first compound 0.8 µM,1.17
same,relative viability,EMC-BAC-2; first compound 2.53 µM,1.33
same,relative viability,EMC-BAC-2; first compound 8 µM,1.3
same,relative viability,LK-2; first compound 0.08 µM,0.904
same,relative viability,LK-2; first compound 0.8 µM,1.2
same,relative viability,LK-2; first compound 2.53 µM,1.26
same,relative viability,LK-2; first compound 8 µM,0.809
same,relative viability,EKVX; first compound 0.08 µM,0.913
same,relative viability,EKVX; first compound 0.8 µM,0.895
same,relative viability,EKVX; first compound 2.53 µM,0.917
same,relative viability,EKVX; first compound 8 µM,0.938
same,relative viability,H3255; first compound 0.08 µM,0.516
same,relative viability,H3255; first compound 0.8 µM,0.674
same,relative viability,H3255; first compound 2.53 µM,0.551
same,relative viability,H3255; first compound 8 µM,0.599
same,relative viability,PC-3 [JPC-3]; first compound 0.08 µM,0.82
same,relative viability,PC-3 [JPC-3]; first compound 0.8 µM,0.752
same,relative viability,PC-3 [JPC-3]; first compound 2.53 µM,0.941
same,relative viability,PC-3 [JPC-3]; first compound 8 µM,0.72
same,relative viability,NCI-H2085; first compound 0.08 µM,1.09
same,relative viability,NCI-H2085; first compound 0.8 µM,1.31
same,relative viability,NCI-H2085; first compound 2.53 µM,1.2
same,relative viability,NCI-H2085; first compound 8 µM,1
same,relative viability,NCI-H1915; first compound 0.08 µM,0.822
same,relative viability,NCI-H1915; first compound 0.8 µM,0.784
same,relative viability,NCI-H1915; first compound 2.53 µM,0.793
same,relative viability,NCI-H1915; first compound 8 µM,0.796
same,relative viability,NCI-H1395; first compound 0.08 µM,1.18
same,relative viability,NCI-H1395; first compound 0.8 µM,1.42
same,relative viability,NCI-H1395; first compound 2.53 µM,1.18
same,relative viability,NCI-H1395; first compound 8 µM,0.982
same,relative viability,NCI-H1437; first compound 0.08 µM,1.07
same,relative viability,NCI-H1437; first compound 0.8 µM,1.14
same,relative viability,NCI-H1437; first compound 2.53 µM,1.11
same,relative viability,NCI-H1437; first compound 8 µM,0.707
same,relative viability,NCI-H2087; first compound 0.08 µM,0.892
same,relative viability,NCI-H2087; first compound 0.8 µM,1.17
same,relative viability,NCI-H2087; first compound 2.53 µM,0.93
same,relative viability,NCI-H2087; first compound 8 µM,0.989
same,relative viability,NCI-H2228; first compound 0.08 µM,0.793
same,relative viability,NCI-H2228; first compound 0.8 µM,0.955
same,relative viability,NCI-H2228; first compound 2.53 µM,1.28
same,relative viability,NCI-H2228; first compound 8 µM,0.604
same,relative viability,CAL-12T; first compound 0.08 µM,1.12
same,relative viability,CAL-12T; first compound 0.8 µM,1.41
same,relative viability,CAL-12T; first compound 2.53 µM,1.23
same,relative viability,CAL-12T; first compound 8 µM,1.24
same,relative viability,NCI-H1755; first compound 0.08 µM,0.993
same,relative viability,NCI-H1755; first compound 0.8 µM,1.03
same,relative viability,NCI-H1755; first compound 2.53 µM,1.07
same,relative viability,NCI-H1755; first compound 8 µM,0.991
same,relative viability,NCI-H1944; first compound 0.08 µM,1.01
same,relative viability,NCI-H1944; first compound 0.8 µM,1.11
same,relative viability,NCI-H1944; first compound 2.53 µM,1.06
same,relative viability,NCI-H1944; first compound 8 µM,0.941
CCCCCCCCCCCC1=C(O)C(=O)C=C(O)C1=O [Embelin] + CC(C)C[C@H](NC(=O)[C@H](Cc1ccccc1)NC(=O)c1cnccn1)B(O)O [Bortezomib] (partner 0.002 µM),relative viability,SK-LU-1; first compound 0.08 µM,1.23
same,relative viability,SK-LU-1; first compound 0.8 µM,1.95
same,relative viability,SK-LU-1; first compound 2.53 µM,0.982
same,relative viability,SK-LU-1; first compound 8 µM,0.929
same,relative viability,NCI-H1651; first compound 0.08 µM,0.958
same,relative viability,NCI-H1651; first compound 0.8 µM,0.92
same,relative viability,NCI-H1651; first compound 2.53 µM,1.01
same,relative viability,NCI-H1651; first compound 8 µM,1.02
same,relative viability,LXF-289; first compound 0.08 µM,1.01
same,relative viability,LXF-289; first compound 0.8 µM,1
same,relative viability,LXF-289; first compound 2.53 µM,1
same,relative viability,LXF-289; first compound 8 µM,1.05
same,relative viability,COR-L 105; first compound 0.08 µM,0.81
same,relative viability,COR-L 105; first compound 0.8 µM,0.901
same,relative viability,COR-L 105; first compound 2.53 µM,0.765
same,relative viability,COR-L 105; first compound 8 µM,0.961
same,relative viability,NCI-H2347; first compound 0.08 µM,1.15
same,relative viability,NCI-H2347; first compound 0.8 µM,1.1
same,relative viability,NCI-H2347; first compound 2.53 µM,1.15
same,relative viability,NCI-H2347; first compound 8 µM,1.05
same,relative viability,LC-2-ad; first compound 0.08 µM,0.959
same,relative viability,LC-2-ad; first compound 0.8 µM,1.1
same,relative viability,LC-2-ad; first compound 2.53 µM,1.05
same,relative viability,LC-2-ad; first compound 8 µM,1.02
same,relative viability,EMC-BAC-2; first compound 0.08 µM,1.04
same,relative viability,EMC-BAC-2; first compound 0.8 µM,1.18
same,relative viability,EMC-BAC-2; first compound 2.53 µM,1.21
same,relative viability,EMC-BAC-2; first compound 8 µM,1.09
same,relative viability,EKVX; first compound 0.08 µM,0.976
same,relative viability,EKVX; first compound 0.8 µM,0.936
same,relative viability,EKVX; first compound 2.53 µM,1.14
same,relative viability,EKVX; first compound 8 µM,1.13
same,relative viability,H3255; first compound 0.08 µM,0.962
same,relative viability,H3255; first compound 0.8 µM,0.975
same,relative viability,H3255; first compound 2.53 µM,0.702
same,relative viability,H3255; first compound 8 µM,0.889
same,relative viability,PC-3 [JPC-3]; first compound 0.08 µM,0.831
same,relative viability,PC-3 [JPC-3]; first compound 0.8 µM,0.908
same,relative viability,PC-3 [JPC-3]; first compound 2.53 µM,0.927
same,relative viability,PC-3 [JPC-3]; first compound 8 µM,0.806
same,relative viability,NCI-H2085; first compound 0.08 µM,0.989
same,relative viability,NCI-H2085; first compound 0.8 µM,1.07
same,relative viability,NCI-H2085; first compound 2.53 µM,1.07
same,relative viability,NCI-H2085; first compound 8 µM,1.03
same,relative viability,NCI-H1915; first compound 0.08 µM,0.951
same,relative viability,NCI-H1915; first compound 0.8 µM,1.02
same,relative viability,NCI-H1915; first compound 2.53 µM,1.13
same,relative viability,NCI-H1915; first compound 8 µM,0.998
same,relative viability,NCI-H1437; first compound 0.08 µM,0.602
same,relative viability,NCI-H1437; first compound 0.8 µM,0.528
same,relative viability,NCI-H1437; first compound 2.53 µM,0.618
same,relative viability,NCI-H1437; first compound 8 µM,0.347
same,relative viability,NCI-H661; first compound 0.08 µM,0.961
same,relative viability,NCI-H661; first compound 0.8 µM,0.867
same,relative viability,NCI-H661; first compound 2.53 µM,0.997
same,relative viability,NCI-H661; first compound 8 µM,0.78
same,relative viability,NCI-H2087; first compound 0.08 µM,0.83
same,relative viability,NCI-H2087; first compound 0.8 µM,0.807
same,relative viability,NCI-H2087; first compound 2.53 µM,0.735
same,relative viability,NCI-H2087; first compound 8 µM,0.935
same,relative viability,NCI-H2228; first compound 0.08 µM,0.939
same,relative viability,NCI-H2228; first compound 0.8 µM,1.03
same,relative viability,NCI-H2228; first compound 2.53 µM,1.29
same,relative viability,NCI-H2228; first compound 8 µM,1.26
same,relative viability,CAL-12T; first compound 0.08 µM,0.996
same,relative viability,CAL-12T; first compound 0.8 µM,1.27
same,relative viability,CAL-12T; first compound 8 µM,1.04
same,relative viability,NCI-H1755; first compound 0.08 µM,0.987
same,relative viability,NCI-H1755; first compound 0.8 µM,1.07
same,relative viability,NCI-H1755; first compound 2.53 µM,0.971
same,relative viability,NCI-H1755; first compound 8 µM,0.917
